Test [1] addresses T1, growth hormone secretagogue receptor (GHSR), rat pituitary membranes (Rattus norvegicus, UniProt O08725).
T1 construct: from the Wistar male rats (150-200 g); from tissue; host or cells: pituitary glands of male Wistar rats (150-200 g), crude membranes
Briefly: [35S]-Compound A radioreceptor binding, rat pituitary membranes. Here is the method:
[^35 S]-Compound A was prepared from an appropriate precursor, N-[1(R)-[(1,2-dihydrospiro[3H-indole-3,4'-piperidin]-1'-yl)-carbonyl]-2-(phenyl-methyloxy)ethyl]-2-amino-t-butoxycarbonyl-2-methylpropanamide, using methane [^35 S]sulfonyl chloride as described in Dean DC, et al., 1995, In: Allen J, Voges R (eds) Synthesis and Applications of Isotopically Labelled Compounds, John Wiley & Sons, New York, pp. 795-801, Purification by semi-preparative HPLC (Zorbax SB-phenyl column, 68% MeOH/water, 0.1% TFA, 5 ml/min) was followed by N-t-BOC cleavage using 15% trifluroacetic acid in dichloromethane (25° C., 3 hr) to give [methylsulfonyl-^35 S]Compound A in near quantitative yield. HPLC purification (Hamilton PRP-1 4.6×250 mm column, linear gradient of 50-75% methanol-water with 1 mM HCl over 30 min, 1.3 ml/min) provided the ligand in >99% radiochemical purity. The structure was established by HPLC coelution with unlabeled Compound A and by mass spectral analysis. The latter method also indicated a specific activity of ~1000 Ci/mmol.
Frozen anterior pituitary glands from male swine (50-80 Kg) or from the Wistar male rats (150-200 g) were homogenized in a tissue homogenizer in ice-cold buffer (50 mM Tris-HCl buffer, pH 7.4, 5 mM MgCl2, 2.5 mM EDTA, 0.1% bovine serum albumin and 30 μg/ml bacitracin). The homogenates were centrifuged for 5 min at 1,400×g and the resulting supernatants were then centrifuged at 34,000×g for 20 min. The pellets were resuspended in same buffer to a 1,500 μg protein/ml and stored at -80° C. Protein was determined by a Bio-Rad method (Bio-Rad Laboratories, Richmond, Calif.).
The standard binding solution contained: […] of 25 mM Tris-HCl buffer, pH 7.4, 10 mM MgCl2, 2.5 mM EDTA, and 100 pM [^35 S]-Compound A. Pituitary membranes (100 μl, 150 μg protein) were added to initiate the binding reaction. […] The filters were washed three times with 3-ml of ice-cold buffer (50 mM Tris-HCl, pH 7.4, 10 mM MgCl2, 2.5 mM EDTA and 0.015% Triton X-100) and the radioactivity on the filters were counted in Aquasol 2. […]

The test system of test [2] is swine growth hormone secretagogue receptor (GHSR). Briefly: Aequorin bioluminescence assay in Xenopus oocytes injected with swine pituitary mRNA / cDNA library pool or clone cRNA. Type of test: cell-based. Conditions: 1 μM. Here is the method:
Xenopus laevis oocytes were isolated and injected using standard methods previously described by Arena, et. al. 1991, Mol. Pharmacol. 40, 368-374, which is hereby incorporated by reference. Adult female Xenopus Laevis frogs (purchased from Xenopus One, Ann Arbor, Mich.) were anesthetized with 0.17% tricaine methanesulfonate and the ovaries were surgically removed and placed in a 60 mm culture dish (Falcon) containing OR-2 medium without calcium (82.5 mM NaCl, 2 mM KCl, 2.5 mM sodium pyruvate, 1 mM MgCl2, 100 μ/ml penicillin, 1 mg/ml streptomycin, 5 mM HEPES, pH=7.5; ND-96 from Specialty Media, NJ). Ovarian lobes were broken open, rinsed several times, and oocytes were released from their sacs by collagenase A digestion (Boehringer-Mannheim; 0.2% for 2-3 hours at 18° C.) in calcium-free OR-2. […]
The ABA requires injection of library pool cRNA (25 ng/egg for pool sizes of 500 to 10,000) with aequorin cRNA (2 ng/egg) supplemented with the G-protein alpha subunit Gα11 (2 ng/egg). […] Polymerase chain reaction (PCR) was utilized to generate a DNA fragment corresponding to the open reading frame (ORF) of the aequorin cDNA with an optimized Kosak translational initiation sequence (Inouye, S. et. al., 1985, Proc. Natl. Acad. Sci. USA 82:3154-3158). […]

T1 sequence (O08725 whole entry): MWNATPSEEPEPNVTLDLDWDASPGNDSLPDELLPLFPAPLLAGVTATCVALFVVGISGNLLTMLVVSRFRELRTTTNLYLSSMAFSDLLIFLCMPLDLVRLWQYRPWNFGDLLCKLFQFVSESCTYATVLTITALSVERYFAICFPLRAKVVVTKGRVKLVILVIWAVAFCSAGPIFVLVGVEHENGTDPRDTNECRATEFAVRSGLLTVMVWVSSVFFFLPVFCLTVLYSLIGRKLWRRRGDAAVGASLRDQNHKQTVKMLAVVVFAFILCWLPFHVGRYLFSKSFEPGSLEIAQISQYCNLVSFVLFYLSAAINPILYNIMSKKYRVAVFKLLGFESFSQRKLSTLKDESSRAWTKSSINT

Usually Kd stands for the constant that tells how readily two partners part at equilibrium. For `CC(C)(N)C(=O)N[C@H](COCc1ccccc1)C(=O)N1CCC2(CC1)CN(S(C)(=O)=O)c1ccccc12` [Compound A, (N-[1(R)-[1,2-dihydro-1-methanesulfonlylspiro[3H-indole-3,4'-piperidin]-1'-yl)carbonyl]-2-(phenylmethyloxy)-ethyl]-2-amino-2-methyl-propanamide], the “specific binding of total binding” value in test [1] (rat membranes, nonspecific in 500 nM unlabeled Compound A) is 45-60%. In test [1] (rat pituitary membranes, n=3), this molecule yielded a Bmax of 2.3±1.1 fmol/mg protein and a Kd of 180 ± 9 pM. In test [2] (clones 7-3 and 28-18), the “bioluminescence response (in words)” value is listed as “positive bioluminescence response”. Moreover, the “bioluminescent signal (in words)” value in test [2] (pool P541) is given as “positive bioluminescent signal”.

Source of the values: patent US6242199A, “Assays for growth hormone secretagogue receptors” (Merck & Co., Inc., priority 1998, dated 2001).
